Experimental data published in the supplement of paper PMC12137928.
Counter-ions that a name gives are not always drawn.

What was measured:
[1] = tested on: HCT116; conditions: 72 h
Method in brief: (§1)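 For IC50 and maximal efficacy, four-parameter Hill fits were used. Input values were CellTiter-Glo luminescence from HCT116 cells seeded at 250 per well in 1536-well plates, normalized to vehicle (0%) and positive control (-100%). Pattern correction followed normalization.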

[2] = tested on: HCT116; assay: efficacy (maximum % inhibition of viability vs DMSO); higher = more cytotoxic; conditions: 72 h
Method in brief: as §1

Row | IC50 cell viability ([1]; ICRF193 0 nM) [µM] | IC50 cell viability ([1]; ICRF193 200 nM) [µM] | SMILES | efficacy ([2]; ICRF193 0 nM) [%] | efficacy ([2]; ICRF193 200 nM) [%]
1 | 0.0651 | 0.0461 | COC(=O)C[C@](O)(CCCC(C)(C)O)C(=O)O[C@@H]1C(OC)=C[C@]23CCCN2CCc2cc4c(cc2[C@H]13)OCO4 [Omacetaxine mepesuccinate] | 65.6 | 66.3
2 | > 45.8 | 6.51 | O=C(N[C@H]1CCS[C@H]2CCC[C@@H](C(=O)O)N2C1=O)[C@@H](S)Cc1ccccc1 [Omapatrilat] |  | 86.5
3 | 18.3 | 23.1 | C/C(=C(/OCCOc1ccc(Cl)cc1)c1ccc(Cl)cc1Cl)n1ccnc1 [Omoconazole] | 41.1 | 62.4
4 | > 45.8 | 29.1 | Cc1c(Cl)c(C)[n+]([O-])c(Cl)c1-c1noc(-c2cc(O)c(O)c([N+](=O)[O-])c2)n1 [Opicapone] |  | 98.7
5 | 20.6 | 18.3 | COc1ccc2c(c1)OC(C)(C)C(c1ccccc1)C2c1ccc(OCCN2CCCC2)cc1 (configuration not stated) [Ormeloxifene] | 91 | 81.5
6 | 23.1 | 16.4 | C=CC(=O)Nc1cc(Nc2nccc(-c3cn(C)c4ccccc34)n2)c(OC)cc1N(C)CCN(C)C [Osimertinib mesylate] | 142 | 101
7 | 18.3 | 29.1 | O=c1[nH]c2ccccc2n1CCCN1CCN(C(c2ccccc2)c2ccccc2)CC1 [Oxatomide] | 73.2 | 84.5
8 | 18.3 | > 45.8 | NC(=O)N1c2ccccc2CC(=O)c2ccccc21 [Oxcarbazepine] | 52.3 | 
9 | 16.4 | 13 | CN(C(=O)CN(CCO)CC(=O)N(C)C(C)(C)Cc1ccccc1)C(C)(C)Cc1ccccc1 [Oxethazaine] | 104 | 97.5
10 | 14.6 | 2.06 | COC(=O)Nc1nc2cc([S+]([O-])c3ccccc3)ccc2[nH]1 (configuration not stated) [Oxfendazole] | 44.2 | 49.7
11 | 1.3 | 0.183 | CCCOc1ccc2[nH]c(NC(=O)OC)nc2c1 [Oxibendazole] | 43 | 40.1
12 | 29.1 | 20.6 | Clc1ccc(CO/N=C(\Cn2ccnc2)c2ccc(Cl)cc2Cl)c(Cl)c1 [Oxiconazole nitrate] | 104 | 101
13 | 11.6 | 9.2 | CCCCC1C(=O)N(c2ccccc2)N(c2ccc(O)cc2)C1=O (configuration not stated) [Oxyphenbutazone] | 103 | 55.1
14 | 16.4 | 29.1 | CCOC(=O)O[C@]1(C(=O)COC(=O)CC)CC[C@H]2[C@@H]3CCC4=CC(=O)C=C[C@]4(C)[C@H]3[C@@H](O)C[C@@]21C [PREDNICARBATE] | 108 | 93.8
15 | 29.1 | 25.9 | NC(=O)[C@@H]1CCCN1C(=O)[C@H](Cc1c[nH]cn1)NC(=O)[C@@H]1CCC(=O)N1 [PROTIRELIN] | 69.8 | 64.8
16 | > 45.8 | 10.3 | O=C(O)c1cccc(-c2noc(-c3ccccc3F)n2)c1 [PTC-124] |  | 46.5
17 | 20.6 | 18.3 | Cc1cc(/C=C/c2ccc3cc(N(C)C)ccc3[n+]2C)c(C)n1-c1ccccc1 [PYRVINIUM PAMOATE] | 111 | 93.2
18 | 0.0058 | 0.00461 | CC(=O)O[C@H]1C(=O)[C@@]2(C)[C@H]([C@H](OC(=O)c3ccccc3)[C@]3(O)C[C@H](OC(=O)[C@H](O)[C@@H](NC(=O)c4ccccc4)c4ccccc4)C(C)=C1C3(C)C)[C@]1(OC(C)=O)CO[C@@H]1C[C@@H]2O [Paclitaxel] | 71.1 | 61.8
19 | 29.1 | 16.4 | CC(=O)c1c(C)c2cnc(Nc3ccc(N4CCNCC4)cn3)nc2n(C2CCCC2)c1=O [Palbociclib] | 98.3 | 104
20 | > 45.8 | 29.1 | CNCCC=C1c2ccccc2CCc2ccccc21 [Pamelor] |  | 51.6
21 | 5.8 | 5.17 | CCOC(=O)Cn1cccc1-c1nc(-c2ccc(OC)cc2)c(-c2ccc(OC)cc2)s1 [Pamicogrel] | 89.1 | 86.7
22 | 0.0651 | 0.058 | Cc1[nH]c2ccccc2c1CCNCc1ccc(/C=C/C(=O)NO)cc1 [Panobinostat] | 95.6 | 94.8
23 | 6.51 | 8.2 | C=C1C(=O)O[C@H]2[C@H]1CC/C(C)=C/CC[C@@]1(C)O[C@@H]21 [Parthenolide] | 93.1 | 95.3
24 | 18.3 | > 45.8 | Cc1ccc(Nc2nccc(N(C)c3ccc4c(C)n(C)nc4c3)n2)cc1S(N)(=O)=O [Pazopanib] | 56.3 | 
25 | > 45.8 | 20.6 | CC(C)(C)NC[C@H](O)COc1ccccc1C1CCCC1 [Penbutolol sulfate] |  | 50

Row | IC50 cell viability ([1]; ICRF193 0 nM) [µM] | IC50 cell viability ([1]; ICRF193 200 nM) [µM] | SMILES | efficacy ([2]; ICRF193 0 nM) [%] | efficacy ([2]; ICRF193 200 nM) [%]
26 | > 45.8 | 18.3 | N=C(N)c1ccc(OCCCCCOc2ccc(C(=N)N)cc2)cc1 [Pentamidine isethionate] |  | 60.4
27 | 31.6 | 35.5 | CN1CCN(CCCN2c3ccccc3Sc3ccccc32)CC1 [Perazine] | 86.5 | 95.2
28 | 18.3 | 18.3 | C1CCC(C(CC2CCCCN2)C2CCCCC2)CC1 (configuration not stated) [Perhexiline] | 90.2 | 100
29 | 23.1 | 23.1 | OCCN1CCN(CCCN2c3ccccc3Sc3ccc(Cl)cc32)CC1 [Perphenazine] | 108 | 115
30 | 18.3 | 18.3 | CC(C)COc1ccc(CNC(=O)N(Cc2ccc(F)cc2)C2CCN(C)CC2)cc1 [Pimavanserin] | 96.9 | 97.4
31 | 14.6 | 18.3 | CC[C@@H]1/C=C(\C)C[C@H](C)C[C@H](OC)[C@H]2O[C@@](O)(C(=O)C(=O)N3CCCC[C@H]3C(=O)O[C@H](/C(C)=C/[C@@H]3CC[C@H](Cl)[C@H](OC)C3)[C@H](C)[C@@H](O)CC1=O)[C@H](C)C[C@@H]2OC [Pimecrolimus] | 62.4 | 63.4
32 | > 45.8 | 20.6 | CC(=O)c1ccc2c(c1)N(CCCN1CCC(CCO)CC1)c1ccccc1S2 [Piperacetazine] |  | 48.7
33 | 5.17 | 6.51 | COc1cccc2c1C(=O)c1c(O)c3c(c(O)c1C2=O)C[C@@](O)(C(=O)CO)C[C@@H]3O[C@H]1C[C@H](N)[C@H](O[C@@H]2CCCCO2)[C@H](C)O1 [Pirarubicin] | 127 | 104
34 | 18.3 | 29.1 | Cc1cc(CC(C)CC(C)(C)C)n(O)c(=O)c1 (configuration not stated) [Piroctone Olamine] | 81 | 87.4
35 | 7.3 | 3.66 | O=C(O)C[C@H](O)C[C@H](O)/C=C/c1c(C2CC2)nc2ccccc2c1-c1ccc(F)cc1 [Pitavastatin Calcium] | 100 | 110
36 | 29.1 | 13 | NCCNc1ccc(NCCN)c2c1C(=O)c1ccncc1C2=O [Pixantronemaleate] | 83.2 | 82.2
37 | 0.0651 | 0.058 | CO[C@H](C(=O)[C@@H](O)[C@@H](C)O)[C@@H]1Cc2cc3cc(O[C@H]4C[C@@H](O[C@@H]5C[C@@H](O)[C@H](O)[C@@H](C)O5)[C@H](O)[C@@H](C)O4)c(C)c(O)c3c(O)c2C(=O)[C@H]1O[C@H]1C[C@@H](O[C@@H]2C[C@@H](O)[C@@H](O[C@@H]3C[C@](C)(O)[C@H](O)[C@@H](C)O3)[C@@H](C)O2)[C@H](O)[C@@H](C)O1 [Plicamycin] | 82.3 | 83.7
38 | 0.0082 | 0.00651 | C#CCC(Cc1cnc2nc(N)nc(N)c2n1)c1ccc(C(=O)N[C@@H](CCC(=O)O)C(=O)O)cc1 (some centres not stated) [Pralatrexate] | 84.8 | 85.6
39 | > 45.8 | 7.99 | COc1cc2nc(N3CCN(C(=O)c4ccco4)CC3)nc(N)c2cc1OC [Prazosin] |  | 42.5
40 | > 45.8 | 29.1 | CC(C)(C)CC(=O)OCC(=O)[C@@]1(O)CC[C@H]2[C@@H]3CCC4=CC(=O)C=C[C@]4(C)[C@H]3[C@@H](O)C[C@@]21C [Prednisolone tebutate] |  | 41.9
41 | 5.8 | > 45.8 | COc1cc(NC(C)CCCN)c2ncccc2c1 (configuration not stated) [Primaquine diphosphate] | 87.5 | 
42 | 25.9 | 20.6 | CN1CCN(CCCN2c3ccccc3Sc3ccc(Cl)cc32)CC1 [Prochlorperazine dimaleate] | 89.6 | 81.1
43 | 20.6 | 29.1 | Nc1ccc2cc3ccc(N)cc3nc2c1 [Proflavin hemisulfate] | 95.1 | 93.6
44 | 29.1 | 18.3 | CC(=O)[C@H]1CC[C@H]2[C@@H]3CCC4=CC(=O)CC[C@]4(C)[C@H]3CC[C@]12C [Progesterone] | 43.3 | 51.2
45 | > 45.8 | 20.6 | CCCN(CCC)C(=O)C(CCC(=O)OCCCN1CCN(CCOC(=O)Cc2c(C)n(C(=O)c3ccc(Cl)cc3)c3ccc(OC)cc23)CC1)NC(=O)c1ccccc1 (configuration not stated) [Proglumetacin] |  | 48.5
46 | > 45.8 | 20.6 | CN(C)CCCN1c2ccccc2Sc2ccccc21 [Promazine hydrochloride] |  | 46.3
47 | > 45.8 | 29.1 | CC(CN1c2ccccc2Sc2ccccc21)N(C)C (configuration not stated) [Promethazine] |  | 45.3
48 | > 45.8 | 23.1 | CCC(=O)c1ccc2c(c1)N(CCCN(C)C)c1ccccc1S2 [Propionylpromazine hydrochloride] |  | 60.1
49 | > 45.8 | 16.4 | CCCOC(C(=O)OC1CCN(C)CC1)(c1ccccc1)c1ccccc1 [Propiverine hydrochloride] |  | 45

Row | SMILES | IC50 cell viability ([1]; ICRF193 0 nM) [µM] | IC50 cell viability ([1]; ICRF193 200 nM) [µM] | efficacy ([2]; ICRF193 0 nM) [%] | efficacy ([2]; ICRF193 200 nM) [%]
50 | Oc1cccc2cccnc12 [OXYQUINOLINE HEMISULFATE] | 23.1 | 18.3 | 86.7 | 88.8
51 | C[C@@H]1O[C@@H](O[C@H]2C[C@@H](O)[C@]3(CO)[C@H]4[C@H](O)C[C@]5(C)[C@@H](C6=CC(=O)OC6)CC[C@]5(O)[C@@H]4CC[C@]3(O)C2)[C@H](O)[C@H](O)[C@H]1O [Ouabain octahydrate] | 0.116 | 0.13 | 104 | 84.4
52 | COc1ccc(Cc2nccc3cc(OC)c(OC)cc23)cc1OC [Papaverine hydrochloride] | > 45.8 | 3.66 |  | 41.6
53 | CC(=O)[O][Hg][c]1ccccc1 [Phenylmercuric acetate] | 4.61 | 5.17 | 106 | 97.9
54 | O=c1[nH]c2ccccc2n1C1CCN(CCCC(c2ccc(F)cc2)c2ccc(F)cc2)CC1 [Pimozide] | 18.3 | 20.6 | 102 | 109
55 | C[C@@H]1O[C@@H](O[C@@H]2C=C3CC[C@@H]4[C@H](CC[C@]5(C)[C@@H](c6ccc(=O)oc6)CC[C@]45O)[C@@]3(C)CC2)[C@H](O)[C@H](O)[C@H]1O [Proscillaridin] | 0.0164 | 0.013 | 107 | 91.3
